Laboratory results from EP0603240B1, “SAFENING HERBICIDAL PYRAZOLYLSULFONYLUREAS” (priority 1991, dated 1993).

Experiments:
[1] = tested on: corn; assay: Example 15, Procedure II: Herbicide No. 1 + butylate (No. 10) with antidotes; type: in vivo
Procedure: (§1) Containers were filled and compacted with a fumigated silt loam top soil to a depth of about 1.3 cm from the top of the container. A first container was designated as an untreated control, a second container was designated as a herbicide control, and a third container was designated as a herbicide + antidote test container. Each of the containers was seeded with a crop species. A measured amount of herbicide dispersed or dissolved in acetone was applied to a measured quantity of soil. To this same quantity of soil treated with herbicide, there was added a measured amount of antidote dispersed or dissolved in acetone. The quantity of soil treated with the herbicide and antidote was thoroughly mixed to incorporate the herbicide and antidote in the soil uniformly. The seed bed in the third container of soil was covered with the soil treated with the herbicide and antidote and the container was leveled. For each test series, the seed beds of the first and second containers were likewise covered by soil layers. the cover layer of the first container was not treated with herbicide or antidote.
(§2) The containers were then placed on a bench in a greenhouse and sub-irrigated as required for the duration of the test. […] Plant response is measured in terms of percent injury. Antidote efficacy is indicated as the difference in plant injury by the herbicide(s) without the antidote and with the antidote.
(§3) This procedure is the same as Procedure I, but modified in the manner that after incorporation of the chemicals (herbicide and antidote) the containers with the covered seedbed were treated with an initial overhead irrigation equivalent to 0.6 cm rainfall, then subsequently sub-irrigated as required on greenhouse benches.
This example describes experiments designed to investigate the antidotal efficacy of a plurality of antidotes against the herbicidal action of a combination of Herbicide No. 1 and butylate in corn and the prevalent weeds barnyardgrass and velvetleaf. The antidotes used in these experiments were Nos. 1-10, 12, 13 and 15.
The test procedure used in these experiments was that of Procedure II described above. The antidotes were applied to a soil cover layer by pipet after spraying the herbicides onto the soil, followed by incorporation and overhead irrigation.

[2] = tested on: corn; assay: Example 12, Procedure II: Herbicide No. 1 + acetochlor (No. 6) with thirteen antidotes; type: in vivo
Procedure: as §1, §2, §3
This example was designed to investigate the efficacy of thirteen different antidotes from different classes of chemistry as safeners against compositions of Herbicide No. 1 and acetochlor (Herbicide No. 6) as co-herbicide. Acetochlor is the active ingredient in the commercial herbicides GUARDIAN® and WENNER®.
The test procedure used in this example was Procedure II described above.

[3] = tested on: corn; assay: Example 25, greenhouse preemergence test: Antidote Nos. 1 and 2 against Herbicide Nos. 1-3; type: in vivo, Corn (Pioneer 3424 variety); conditions: preemergence; Herbicide Nos. 1-3 at the two highest rates
Procedure: The chemicals were tested in both preemergence and post-emergence modes of application. The herbicides were prepared and applied as wettable powders; dichlormid was applied as an emulsifiable concentrate, while the naphthalic anhydride was applied as a coating on the corn seed prior to planting.
(§4) Test data from the preemergence tests are shown in Table 25A and from the post-emergence tests in Table 25B. In the tables, the concentration of chemicals is shown in terms of active ingredient in grams per hectare (G/ha); concentrations of the naphthalic anhydride were not measured per se, but were present as in conventional, normally-coated applications. Corn injury is shown in terms of percent inhibition of growth.

[4] = tested on: corn; assay: Example 25, greenhouse post-emergence test: Antidote Nos. 1 and 2 against Herbicide Nos. 1-3; type: in vivo, Corn (Pioneer 3424 variety); conditions: Herbicide Nos. 1-3
Procedure: Additional tests were conducted in the greenhouse in order to evaluate the antidotal efficacy of Antidote Nos. 1 (dichlormid) and 2 (naphthalic anhydride) in protecting corn from the herbicidal activity of Herbicide Nos. 1-3 (i.e., NC-319, NC-319 EX and NC-311, respectively). The chemicals were tested in both preemergence and post-emergence modes of application. The herbicides were prepared and applied as wettable powders; dichlormid was applied as an emulsifiable concentrate, while the naphthalic anhydride was applied as a coating on the corn seed prior to planting.
Corn seeds (Pioneer 3424 variety) were planted in alluvial soil containing compost and fertilizer in pots 12 cm. in diameter. Test chemicals were applied with a spray gun at the spray volume rate of 11.2 l/ha at the time of seeding in the preemergence tests and seven (7) days after seeding in the post-emergence tests, when the check (control) plants were at the 16-20 cm., 3.0-3.2 leaf stage, and naphthalic anhydride coated seed grown plants were at the 14-16 cm., 2.8-3.0 leaf stage.
as §4

[5] = tested on: barnyardgrass (Echinochloa crusgalli); assay: Example 11, Procedure II: Herbicide No. 1 + metazachlor (No. 14) with antidotes; type: in vivo; conditions: Herbicide No.14 3.36 kg/ha alone, no antidote
Procedure: as §1, §2, §3
(§5) In the series of greenhouse tests described below, for routine screening purposes the herbicide/antidote compositions were tested in crop/weed combinations involving corn as the crop and either or both of the weeds barnyardgrass (Echinochloa crusgalli), a monocotyledonous weed, and velvetleaf (Abutilon theophrasti), a dicotyledonous weed. In the tables below, these weeds are indicated by the symbols "BYG" and "VL", respectively.
(§6) In this example, yet another α-chloroacetanilide co-herbicide, metazachlor (Herbicide No. 14) was combined with Herbicide No. 1 for investigation of the effect of various safeners on that composition. Metazachlor is the active ingredient in the commercial herbicide BUTISAN® S, used here as a 500 g/L formulation.

[6] = tested on: velvetleaf (Abutilon theophrasti); assay: as above; type: in vivo; conditions: Herbicide No.14 3.36 kg/ha alone, no antidote
Procedure: as §1, §2, §3, §5, §6

[7] = tested on: corn; assay: as above; type: in vivo; conditions: Herbicide No.14 3.36 kg/ha alone, no antidote
Procedure: as §1, §2, §3, §6

[8] = tested on: corn; assay: Example 10, Procedure II: Herbicide No. 1 + propachlor (No. 5) with antidotes; type: in vivo; conditions: Herbicide No.5 4.48 kg/ha alone, no antidote
Procedure: as §1, §2, §3
(§7) In this test, the safening effect of various antidotes on the herbicidal combination of Herbicide No. 1 and another α-chloroacetanilide co-herbicide, propachlor, (Herbicide No. 5) was investigated. Propachlor is the active ingredient in the commercial herbicide RAMROD®. Procedure II was also used in this test as in the preceding example.

[9] = tested on: barnyardgrass (Echinochloa crusgalli); assay: as above; type: in vivo; conditions: Herbicide No.5 4.48 kg/ha alone, no antidote
Procedure: as §1, §2, §3, §5, §7

[10] = tested on: velvetleaf (Abutilon theophrasti); assay: as above; type: in vivo; conditions: Herbicide No.5 4.48 kg/ha alone, no antidote
Procedure: as §1, §2, §3, §5, §7

[11] = tested on: corn; assay: Example 13, Procedure II: Herbicide No. 1 + acetochlor (No. 6) with dichloroacetamide antidotes; type: in vivo; conditions: in vivo
Procedure: as §1, §2, §3
In this example a plurality of dichloroacetamide antidotes were tested for their safening efficacy against a herbicidal composition comprising Herbicide No. 1 and a co-herbicide, acetochlor (Herbicide No. 6) in corn in the presence of velvetleaf. The procedure used in this example was Procedure II above.

[12] = tested on: corn; assay: Example 19, Procedure II: Herbicide No. 1 + ERADICANE EXTRA with added antidotes; type: in vivo; conditions: Herbicide No. 1 + ERADICANE EXTRA, Table 19
Procedure: as §1, §2, §3
In the test reported in this example, the herbicidal composition was similar to that used in Example 16 in that Herbicide No. 1 was combined with EPTC (Herbicide No. 4) as a co-herbicide and the antidotes included Nos. 1, 2, 7, 13 and 15. However, in this test the EPTC was introduced as a formulation of ERADICANE (EPTC + the antidote R-25788, i.e., Antidote No. 1) at an application rate of 8.96 kg/ha. Thus, in this test two antidotes were present, viz. R-25788 and one of the auxilliary antidotes, No. 2, 13 and 15.
The test reported in this example was performed in the same manner and with the same antidotes used in Example 18, the only difference being the substitution of the commercial herbicidal product ERADICANE® EXTRA for ERADICANE®. ERADICANE EXTRA is a formulation containing both an antidote, i.e., R-29148 (Antidote No. 5 herein), and an extender, dietholate.

[13] = tested on: corn; assay: Example 6, Procedure II: Herbicide No. 1 + alachlor (No. 7) with antidotes; type: in vivo; conditions: Herbicides 1 and 7 applied PPI, Table 6
Procedure: as §1, §2, §3
This example was designed to investigate the antidotal efficacy of a plurality of antidotal compounds against a composition comprising Herbicide No. 1 in combination with Herbicide No. 7 (alachlor). The antidotal compounds used herein were Nos. 1, 2, 7, 13 and 15.
In this example, Procedure II described above was followed. The data from the tests in this example is shown in Table 6 and represents averages of duplicate replications.

## CCSC(=O)N(CC(C)C)CC(C)C [Herbicide No.10]
[1]; in vivo
  % Injury Corn: 5%

## O=C1OC(=O)c2cccc3cccc1c23 [Antidote No. 2, 1H, 3H-Naphtho [1,8-cd]pyran-1,3-dione]
[2]; Herbicide No. 1:Herbicide 6:Antidote 0.56:2.24:2.24 kg/ha
  safening of corn, assessment in words: performed at commercial levels
[3]
  safening of corn, assessment in words: significantly reduced corn injury
[4]
  safening of corn, assessment in words: significantly reduced corn injury by Herbicides No. 1 and 3 at the highest rates of application, but not at lower rates

## Cc1cccc(C)c1N(Cn1cccn1)C(=O)CCl [Herbicide No.14]
[5]
  % Injury BYG: 100%
[6]
  % Injury VL: 65%
[7]
  % Injury Corn: 85%

## CC(C)N(C(=O)CCl)c1ccccc1 [Herbicide No.5]
[8]
  % Injury Corn: 0%
[9]
  % Injury BYG: 100%
[10]
  % Injury VL: 15%

## CC1(C)CN2C(=O)CCC2(C)N(C(=O)C(Cl)Cl)C1 (stereo not drawn) [compound 14]
[11]
  % Injury Corn: 5%

## CC1(C(Cl)Cl)OCCO1 [Antidote No. 13, 1,3-Dioxolane, 2-(dichloromethyl)-2-methyl-]
[12]
  safening of corn, assessment in words: most efficacious antidote across all four treatments
[2]; Herbicide No. 1:Herbicide 6:Antidote 0.14:2.24:2.24 kg/ha
  safening of corn, assessment in words: performed at commercial levels
[1]; Herbicide No. 1 1.12 and 0.56 kg/ha + Herbicide No. 10 6.72 kg/ha PPI, Table 15
  safening of corn, assessment in words: best safening effect at the highest rate
[13]
  safening of corn, assessment in words: best safening effect across four treatments
